From PMC9295122, “Sialic Acid Derivatives Inhibit SiaT Transporters and Delay Bacterial Growth” (ACS Chemical Biology, 2022)
Values after ≈ are worked out from the molar mass of the structure shown.

What was measured:
[1] = Plasma stability, mini pig; assay type: in vitro ADME; details: 1 μM, 37 °C
Method: The reaction was started by the addition of the compound to blank plasma in LC vials after preincubation at 37 °C. The initial compound concentration was 1 μM. The reaction was stopped by the addition of ACN at seven time points (0, 0.5, 1, 2, 4, 6, and 23 h). Time point 0 h was about 15–20 s after spiking the plasma with the compound. The samples were centrifuged and the supernatant diluted and analyzed by LC–MS/MS to determine the % of compound remaining relative to the initial concentration of compound.

[2] = Solid solubility; assay type: physicochemical; details: phosphate buffer, pH 7.4, aqueous buffer, thermodynamic from solid; from solid material, tested up to 2000 μM; read-out: Solid solubility in 0.1 M phosphate buffer pH 7.4
Excerpt: Duplicate samples per compound.

[3] = Plasma-protein binding by RED, rat; assay type: in vitro ADME; details: pH 7.2, read-out: Plasma-protein binding by RED (% unbound compound, average n=2)
Method: The assay was run in a deep well plate containing RED inserts with semipermeable dialysis membranes. The reaction was started by adding the compounds to a blank plasma in a 5 μM concentration. Opposite to the blank plasma was a compartment containing isotonic sodium–phosphate buffer (pH 7.2) separated from the plasma by the membrane. The plate was equilibrated in a water bath at 37 °C for 4 h. Samples from both the plasma and the buffer side were matrix compensated before protein precipitation. The samples were centrifuged, and the supernatants were diluted and analyzed by LC–MS/MS to determine the % unbound compound. Two incubations per compound per species.

[4] = molecular target: T1, SiaT from P. mirabilis (Proteus mirabilis, UniProt B4EZY7); test: biochemical; assay type: biochemical; details: for type of inhibition: PmSiaT, Lineweaver–Burk plot; for Ki: proteoliposome assay, Lineweaver–Burk, read-out: PmSiaT Ki
T1 construct: made in house
Method: To gain further insights into the molecular mechanisms, we investigated the direct effects of compounds 3e and 3f on the transport activity in proteoliposomes reconstituted with PmSiaT and SaSiaT. A kinetic analysis was performed by measuring the concentration-dependent uptake of [^3H]Neu5Ac in the presence of two different concentrations of the inhibitors 3f (Figure 5a,c) or 3e (Figure 5b,d).
Figure 5 Kinetic analysis of the inhibition of recombinant SiaT from P. mirabilis (A,B) and S. aureus (C,D) reconstituted in proteoliposomes and [^3H]Neu5Ac efflux in proteoliposomes (E,F). (a–d) Data were plotted according to Lineweaver–Burk as a reciprocal transport rate vs reciprocal Neu5Ac concentration. The transport rate was measured, in 5 min, by adding [^3H] Neu5Ac at the indicated concentrations to proteoliposomes containing 20 mM K^+-gluconate in the presence of valinomycin as described in the Supporting Information. [(A,B) P. mirabilis SiaT]; (A) compound 3f 0.25 μM (●) or 0.75 μM (□) was added in comparison to samples without inhibitor (○). (B) Compound 3e 12 μM (●) or 40 μM (□) was added in comparison to samples without an inhibitor (○). [(C,D) S. aureus SiaT]. (C) Compound 3f 80 μM (●) or 200 μM (□) was added in comparison to samples without an inhibitor (○). (D) Compound 3e 5 μM (●) or 12 μM (□) was added in comparison to samples without an inhibitor (○). Results are mean ± s.d. from four independent experiments (n = 4). […] Data are calculated as the percent of residual activity with respect to the control sample (efflux time zero). The results are the means ± s.d. of three independent experiments.
The purified SiaT from P. mirabilis and S. aureus was reconstituted by using the detergent removal procedure with the batchwise method previously pointed out.[16],[21] In brief, 2.5 μg or 5 μg of P. mirabilis and S. aureus SiaT, respectively, were mixed with 120 μL 10% C12E8, 100 μL of 10% egg yolk phospholipids (w/v, in the form of sonicated liposomes as previously described),[43] 20 mM of K^+-gluconate, and 20 mM Hepes Tris pH 7.0 in a final volume of 700 μL. The reconstitution mixture was incubated with 0.5 g Amberlite XAD-4 resin under rotatory stirring (1200 rpm) at 25 °C for 40 min.[44] The amount of reconstituted protein was estimated as previously described.[16]
For uptake experiments, 600 μL of proteoliposomes were loaded onto a Sephadex G-75 column (0.7 cm diameter × 15 cm height), pre-equilibrated with 20 mM Hepes Tris pH 7.0 with 40 mM sucrose to balance the internal osmolarity. Then, valinomycin (0.75 μg/mg phospholipid), prepared in ethanol, was added to the eluted proteoliposomes to generate a K^+ diffusion potential, as previously described. After 10 s of incubation with valinomycin, the transport was started by adding different concentrations of [^3H]-Neu5Ac (as indicated in the figures) to 100 μL proteoliposomes in the presence of 10 mM NaCl for P. mirabilis and 50 mM NaCl for S. aureus. For kinetic measurement, the initial transport rate was measured by stopping the reaction after 5 min, that is, within the initial linear range of [^3H]-Neu5Ac uptake into the proteoliposomes previously described. For efflux measurements, proteoliposomes were preloaded by incubation with [^3H]-Neu5Ac (as indicated in the figures) in the presence of 10 mM NaCl for P. mirabilis and 50 mM NaCl for S. aureus for 20 min. Efflux was started by adding 0.1 mM Neu5Ac or inhibitors to the preloaded proteoliposomes. In both uptake and efflux experiments, the transport assay was terminated by loading each proteoliposome sample (100 μL) on a Sephadex G-75 column (0.6 cm diameter × 8 cm height) to remove the external radioactivity. Proteoliposomes were eluted with 1 mL of 50 mM NaCl and collected in a 4 mL of scintillation mixture, vortexed and counted.

[5] = LogD pH 7.4 shake flask; assay type: physicochemical; details: 1-octanol / phosphate buffer pH 7.4
Method: Distribution coefficients between 1-octanol and phosphate buffer pH 7.4 were determined with a shake flask method with the LC–UV detection of the compound concentration in both phases. The reported range was from −1 to +4.

[6] = Neu5Ac transport by PmSiaT in proteoliposomes

T1 sequence (B4EZY7 whole entry): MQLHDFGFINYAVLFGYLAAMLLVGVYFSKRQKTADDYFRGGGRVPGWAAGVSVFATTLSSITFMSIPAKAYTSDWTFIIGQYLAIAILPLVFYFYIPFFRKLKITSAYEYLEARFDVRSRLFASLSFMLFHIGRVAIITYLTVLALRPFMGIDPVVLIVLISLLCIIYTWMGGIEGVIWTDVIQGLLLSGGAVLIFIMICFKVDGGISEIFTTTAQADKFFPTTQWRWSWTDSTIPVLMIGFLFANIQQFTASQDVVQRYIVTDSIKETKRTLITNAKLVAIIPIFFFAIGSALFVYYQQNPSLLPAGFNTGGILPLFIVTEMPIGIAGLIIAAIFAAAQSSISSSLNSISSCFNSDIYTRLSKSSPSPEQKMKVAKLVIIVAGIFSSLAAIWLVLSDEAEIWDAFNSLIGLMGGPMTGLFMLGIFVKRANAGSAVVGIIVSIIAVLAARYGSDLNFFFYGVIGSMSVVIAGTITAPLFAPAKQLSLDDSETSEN

Compound	In vitro plasma stability (% compound remaining after 23 h) [1] [%]	solubility [2] [µM]	fraction unbound at 4 h, 5 μM [3]	type of inhibition [4]	Ki [4] [µM]	logD [5]	Km [4, 6] [µM]	Vmax [4, 6] [nmol/mg protein/min]
CC(=O)NC1C(OCc2cc(F)cc(F)c2)CC(O)(C(=O)O)OC1C(O)C(O)CO (stereo not drawn) [Compound 3e]	100	> 2000	0.67	competitive inhibitors	9.9 ± 2.6	< -0.5		
CC(=O)NC1C(OCc2cc(Br)cc(Br)c2)CC(O)(C(=O)O)OC1C(O)C(O)CO (stereo not drawn) [Compound 3f]	39	1630 (≈ 908 µg/mL)	0.21	competitive inhibitors	0.13 ± 0.04	< 0		
CC(=O)N[C@H]1[C@H]([C@H](O)[C@H](O)CO)OC(O)(C(=O)O)C[C@@H]1O (stereo partly drawn) [Neu5Ac, 5-N-acetyl neuraminic acid, reference compound]							7.5 ± 1.6	180 ± 56
CC(=O)NC1C(OCc2ccccc2)CC(O)(C(=O)O)OC1C(O)C(O)CO (stereo not drawn) [Compound 3a]	100	> 2000	0.72			< -0.5		
